Experiments:
male Swiss-Webster mice = settings: larger dose (20 μg/kg as printed), previously shown; cited from earlier work
rat = settings: after the initial insult; cited from earlier work
[1] = test system: Human renal proximal tubular epithelial cells (RPTEC); test: Mild ATP depletion of cultured cells (in vitro ischemia) with antimycin A; assay type: cell-based; settings: 1 μm antimycin; for ATP level (partial ATP depletion): mean+/-SD from four experiments
Protocol: Human renal proximal tubular epithelial cells (RPTEC) were obtained from Clonetics (San Diego, Calif.). Cells were grown in Renal Epithelial Cell Basal Medium supplemented with REGM complex ([…] hydrocortisone, 10 pg/ml hEGF, 0.5 μg/ml epinephrine, 6.5 pg/ml triiodothyronine, 10 μg/ml transferrin, 5 μg/ml insulin, 1 μg/ml gentamicin sulfate, and 2% FBS), as recommended by the manufacturer.
We modified previously described protocols of in vitro ischemia by ATP depletion with inhibitors of oxidative phosphorylation (8, 9). On the second day post-confluence, RPTEC cells were incubated with 1 μm antimycin A (Sigma) for varying periods of time up to 6 h. […] ATP levels were monitored using a luciferase-based assay kit (Sigma), and expressed as a percentage of control values. Cells were harvested at various time points of ATP depletion, and analyzed for NGAL mRNA expression by RT-PCR and NGAL protein expression by Western analysis. The secretion of NGAL into the culture medium was also monitored.
In order to confirm the origin of NGAL from ischemic proximal tubule cells, we modified previously described protocols of in vitro ischemia by ATP depletion in cultured human proximal tubule cells (RPTEC). […] NGAL mRNA was just detectable in resting cells.

| Compound | Time to tubule cell necrosis and apoptosis, and impaired renal function (male Swiss-Webster mice) [days] | Time at which KIM-1 is qualitatively detectable (rat) [h] | ATP level (partial ATP depletion) ([1]; by 6 h) | Morphological consequences of mild ATP depletion ([1]; up to 6 h) | ATP level (partial ATP depletion) ([1]; within 1 h) | NGAL mRNA induction by RT-PCR ([1]; following partial ATP depletion) |
| --- | --- | --- | --- | --- | --- | --- |
| N.N.[Cl][Pt][Cl] [cisplatin] | 3 to 4 | 24 to 48 |  |  |  |  |
| antimycin A |  |  | about 75±3 % of control | No morphological consequences | about 83±3 % of control | rapid and duration-dependent induction |

Source: patent US20130137116A1, “METHOD AND KIT FOR DETECTING THE EARLY ONSET OF RENAL TUBULAR CELL INJURY” (priority 2003, published 2013)
